The values that follow come from PMC11864037 (RSC Advances, 2025).

The target in one data set is SARS-CoV-2 M^pro (Severe acute respiratory syndrome coronavirus 2, UniProt P0DTD1). The experiment in a line: biochemical. The conditions noted are these: for inhibition against M^pro: concentration not given.
Data set [1] in a line: MTT cytotoxic assay in Vero-E6 cells. The conditions noted are these: African green monkey. It is filed as cell-based.
Another data set has as its system M^pro. The conditions noted are these: repurposed drug; cited from earlier work.
In another data set the test system is SARS-CoV-2. Particulars: cited from earlier work.

Where two headings read alike, the source gives them in different places.

In turn, `O=C(O)CC[C@H](NC(=O)C1=C(C(F)(F)F)NC(=S)NC1c1ccc(C(F)(F)F)cc1)C(=O)O` (stereo partly drawn) [8a] showed an IC50 on SARS-CoV-2 M^pro of 23.2 µM.
Same read-out and setting: under `O=C(Nc1ccc(S(=O)(=O)O)cc1)C1=C(C(F)(F)F)NC(=S)NC1c1ccc(C(F)(F)F)cc1` (stereo not drawn) [8c] stands 28.2 µM.
As for `COC(=O)c1ccc(C2N=C(SC(=O)CN3CCn4c(nnc4C(F)(F)F)C3)NC(C(F)(F)F)=C2C(=O)N[C@@H](Cc2c[nH]cn2)C(=O)O)cc1` (stereo partly drawn) [12l, (4-(4-(Methoxycarbonyl)phenyl)-6-(trifluoromethyl)-2-((2-(3-(trifluoromethyl)-5,6-dihydro-[1,2,4]triazolo[4,3-a]pyrazin-7(8H)-yl)acetyl)thio)-1,4-dihydropyrimidine-5-carbonyl)-L-histidine], on SARS-CoV-2 M^pro, the IC50 is 0.054 µM and the “inhibition against M^pro” value was “over 50%”. Further, half-maximal cytotoxicity in data set [1] (CC50 at 48 h) was put at 198 µM.
On SARS-CoV-2 M^pro, `O=C(O)CC[C@H](NC(=O)C1=C(C(F)(F)F)NC(SC(=O)CN2CCn3c(nnc3C(F)(F)F)C2)=NC1c1ccc(C(F)(F)F)cc1)C(=O)O` (stereo partly drawn) [12a, (6-(Trifluoromethyl)-2-((2-(3-(trifluoromethyl)-5,6-dihydro-[1,2,4]triazolo[4,3-a]-pyrazin-7(8H)-yl)acetyl)thio)-4-(4 (trifluoromethyl)phenyl)-1,4-dihydropyrimidine-5-carbonyl)-L-glutamic acid] returned an IC50 of 0.15 µM.
With `CC(C)(C)NC(=O)N[C@H](C(=O)N1C[C@H]2[C@@H]([C@H]1C(=O)NC(CC1CCC1)C(=O)C(N)=O)C2(C)C)C(C)(C)C` (stereo partly drawn) [boceprevir], the IC50 in the data set on M^pro was 4.13 µM.
On to `CS(=O)(=O)n1cc2c(n1)CN(CC(=O)SC1=NC(c3ccc([N+](=O)[O-])cc3)C(C(=O)Nc3ccc(S(=O)(=O)O)cc3)=C(C(F)(F)F)N1)C2` (stereo not drawn) [12k, 4-(2-((2-(2-(Methylsulfonyl)-2,6-dihydropyrrolo[3,4-c]pyrazol-5(4H)-yl)acetyl)thio)-4-(4-nitrophenyl)-6-(trifluoromethyl)-1,4-dihydropyrimidine-5-carboxamido)benzene-sulfonic acid], for which the midpoint of inhibition at SARS-CoV-2 M^pro, the IC50, lay at 0.146 µM. In data set [1], this compound yielded a CC50 at 48 h of 239 µM.
As for `CC(C)(C)[C@H](NC(=O)C(F)(F)F)C(=O)N1C[C@H]2[C@@H]([C@H]1C(=O)N[C@H](C#N)C[C@@H]1CCNC1=O)C2(C)C` [nirmatrelvir], the EC50 with SARS-CoV-2 (read-out: antiviral activity EC50) is 0.074 µM.
Compound `COC(=O)c1ccc(C2NC(=S)NC(C(F)(F)F)=C2C(=O)N[C@@H](Cc2c[nH]cn2)C(=O)O)cc1` (stereo partly drawn) [8h] displayed an IC50 against SARS-CoV-2 M^pro of 34.9 µM.
Still for that read-out and setting: with `O=C(CN1CCn2c(nnc2C(F)(F)F)C1)SC1=NC(c2ccc(C(F)(F)F)cc2)C(C(=O)N[C@@H](Cc2ccc(O)cc2)C(=O)O)=C(C(F)(F)F)N1` (stereo partly drawn) [12e, (6-(Trifluoromethyl)-2-((2-(3-(trifluoromethyl)-5,6-dihydro-[1,2,4]triazolo[4,3-a]-pyrazin-7(8H)-yl)acetyl)thio)-4-(4-(trifluoromethyl)phenyl)-1,4-dihydropyrimidine-5-carbonyl)-L-tyrosine] the figure was 0.73 ± 0.04 µM.
As for `CS(=O)(=O)n1cc2c(n1)CN(CC(=O)SC1=NC(c3ccc([N+](=O)[O-])cc3)C(C(=O)N[C@@H](CCC(=O)O)C(=O)O)=C(C(F)(F)F)N1)C2` (stereo partly drawn) [12j, (2-((2-(2-(Methylsulfonyl)-2,6-dihydropyrrolo[3,4-c]pyrazol-5(4H)-yl)acetyl)thio)-4-(4-nitrophenyl)-6-(trifluoromethyl)-1,4-dihydropyrimidine-5-carbonyl)-L-glutamic acid], at SARS-CoV-2 M^pro, the IC50 was 0.063 µM and the “inhibition against M^pro” value is listed as “over 50%”. In addition, the CC50 at 48 h in data set [1] turned out to be 211 µM.
For the compound `CS(=O)(=O)n1cc2c(n1)CN(CC(=O)SC1=NC(c3ccc(C(F)(F)F)cc3)C(C(=O)N[C@@H](Cc3ccc(O)cc3)C(=O)O)=C(C(F)(F)F)N1)C2` (stereo partly drawn) [12i, (2-((2-(2-(Methylsulfonyl)-2,6-dihydropyrrolo[3,4-c]pyrazol-5(4H)-yl)acetyl)thio)-6-(trifluoromethyl)-4-(4-(trifluoromethyl)phenyl)-1,4-dihydropyrimidine-5-carbonyl)-L-tyrosine], half-maximal cytotoxicity in data set [1] (CC50 at 48 h) was put at 243 µM.
`Cn1cnc(Cn2c(=O)[nH]/c(=N\c3cc4cn(C)nc4cc3Cl)n(Cc3cc(F)c(F)cc3F)c2=O)n1` [ensitrelvir]: the EC50 in the data set on SARS-CoV-2 was 0.37 µM.
Turning to `NC1CCCN(CC(=O)SC2=NC(c3ccc(C(F)(F)F)cc3)C(C(=O)N[C@@H](Cc3ccc(O)cc3)C(=O)O)=C(C(F)(F)F)N2)C1` (stereo partly drawn) [12g, (2-((2-(3-Aminopiperidin-1-yl)acetyl)thio)-6-(trifluoromethyl)-4-(4-(trifluoromethyl)-phenyl)-1,4-dihydropyrimidine-5-carbonyl)-L-tyrosine], it took 0.21 ± 0.01 µM to reach half-maximal inhibition against SARS-CoV-2 M^pro (IC50).
In turn, `O=C(O)CC[C@H](NC(=O)C1=C(C(F)(F)F)NC(=S)NC1c1ccc([N+](=O)[O-])cc1)C(=O)O` (stereo partly drawn) [8f] gave an IC50 against SARS-CoV-2 M^pro of 36.8 µM.
On SARS-CoV-2 M^pro, `O=C(N[C@@H](Cc1c[nH]cn1)C(=O)O)C1=C(C(F)(F)F)NC(=S)NC1c1ccc(C(F)(F)F)cc1` (stereo partly drawn) [8d] yielded a half-inhibitory concentration (IC50) of 30.7 µM.
Still for that read-out and setting: with `CS(=O)(=O)n1cc2c(n1)CN(CC(=O)SC1=NC(c3ccc(C(F)(F)F)cc3)C(C(=O)N[C@@H](Cc3c[nH]cn3)C(=O)O)=C(C(F)(F)F)N1)C2` (stereo partly drawn) [12h, (2-((2-(2-(Methylsulfonyl)-2,6-dihydropyrrolo[3,4-c]pyrazol-5(4H)-yl)acetyl)thio)-6-(trifluoromethyl)-4-(4-(trifluoromethyl)phenyl)-1,4-dihydropyrimidine-5-carbonyl)histidine] the figure was 16.3 µM.
`O=C(O)C[C@H](NC(=O)C1=C(C(F)(F)F)NC(=S)NC1c1ccc(C(F)(F)F)cc1)C(=O)O` (stereo partly drawn) [8b] registered an IC50 against SARS-CoV-2 M^pro of 44.7 ± 1.36 µM.
Same read-out and setting: with `O=C(CN1CCn2c(nnc2C(F)(F)F)C1)SC1=NC(c2ccc(C(F)(F)F)cc2)C(C(=O)N[C@@H](Cc2c[nH]cn2)C(=O)O)=C(C(F)(F)F)N1` (stereo partly drawn) [12d, (6-(Trifluoromethyl)-2-((2-(3-(trifluoromethyl)-5,6-dihydro-[1,2,4]triazolo[4,3-a]pyrazin-7(8H)-yl)acetyl)thio)-4-(4-(trifluoromethyl)phenyl)-1,4-dihydropyrimidine-5-carbonyl)histidine] the figure was 14.4 µM.
On the same count and under the same terms, with `O=C(N[C@@H](Cc1ccc(O)cc1)C(=O)O)C1=C(C(F)(F)F)NC(=S)NC1c1ccc(C(F)(F)F)cc1` (stereo partly drawn) [8e] the figure was 25.3 µM.
